Data reported in the NIST ThermoML archive (doi:10.1021/je700260f).

Conditions: Liquid, Vibrating tube method

FC(C(F)(F)F)C(F)(F)F [1,1,1,2,3,3,3-heptafluoropropane]
Conditions | mass density [kg/m3]
333.16 K, 21595 kPa | 1400.1
333.16 K, 21615 kPa | 1400.2
333.16 K, 21797 kPa | 1401.1
333.16 K, 21860 kPa | 1401.5
333.16 K, 21957 kPa | 1401.9
333.16 K, 21990 kPa | 1402
333.16 K, 22016 kPa | 1402.3
333.16 K, 22042 kPa | 1402.3
333.16 K, 22082 kPa | 1402.5
333.16 K, 22116 kPa | 1402.8
333.16 K, 22154 kPa | 1402.9
333.16 K, 22183 kPa | 1403.1
333.16 K, 22220 kPa | 1403.2
333.16 K, 22249 kPa | 1403.6
333.16 K, 22279 kPa | 1403.5
333.16 K, 22309 kPa | 1403.8
333.16 K, 22335 kPa | 1403.8
333.16 K, 22370 kPa | 1404.1
333.16 K, 22404 kPa | 1404.2
333.16 K, 22435 kPa | 1404.3
333.16 K, 22473 kPa | 1404.6
333.16 K, 22511 kPa | 1404.8
333.16 K, 22537 kPa | 1404.9
333.16 K, 22575 kPa | 1405.2
333.16 K, 22605 kPa | 1405.3
333.16 K, 22642 kPa | 1405.4
333.16 K, 22672 kPa | 1405.6
333.16 K, 22698 kPa | 1405.8
333.16 K, 22736 kPa | 1405.9
333.16 K, 22762 kPa | 1406.1
333.16 K, 22980 kPa | 1407.1
333.16 K, 23011 kPa | 1407.2
333.16 K, 23037 kPa | 1407.4
333.16 K, 23068 kPa | 1407.5
333.16 K, 23104 kPa | 1407.9
333.16 K, 23133 kPa | 1407.8
333.16 K, 23162 kPa | 1408
333.16 K, 23193 kPa | 1408.1
333.16 K, 23228 kPa | 1408.3
333.16 K, 23254 kPa | 1408.5
333.16 K, 23297 kPa | 1408.8
333.16 K, 23324 kPa | 1408.8
333.16 K, 23358 kPa | 1409
333.16 K, 23425 kPa | 1409.3
333.16 K, 23453 kPa | 1409.5
333.16 K, 23480 kPa | 1409.5
333.16 K, 23515 kPa | 1409.6
333.16 K, 23559 kPa | 1410
333.16 K, 23594 kPa | 1410.2
333.16 K, 23633 kPa | 1410.3
333.16 K, 23662 kPa | 1410.4
333.16 K, 23693 kPa | 1410.4
333.16 K, 23728 kPa | 1410.8
333.16 K, 23763 kPa | 1411
333.16 K, 23795 kPa | 1411
333.16 K, 23823 kPa | 1411.3
333.16 K, 23890 kPa | 1411.6
333.16 K, 23921 kPa | 1411.7
333.16 K, 23957 kPa | 1411.9
333.16 K, 23993 kPa | 1412
333.16 K, 24020 kPa | 1412.2
333.16 K, 24055 kPa | 1412.4
333.16 K, 24089 kPa | 1412.4
333.16 K, 24110 kPa | 1412.7
333.16 K, 24140 kPa | 1412.7
333.16 K, 24184 kPa | 1413
333.16 K, 24206 kPa | 1413.1
333.16 K, 24242 kPa | 1413.2
333.16 K, 24269 kPa | 1413.3
333.16 K, 24304 kPa | 1413.6
333.16 K, 24333 kPa | 1413.8
333.16 K, 24369 kPa | 1413.7
333.16 K, 24396 kPa | 1414
333.16 K, 24436 kPa | 1414.2
333.16 K, 24468 kPa | 1414.3
333.16 K, 24500 kPa | 1414.4
333.16 K, 24531 kPa | 1414.6
333.16 K, 24558 kPa | 1414.7
333.16 K, 24594 kPa | 1414.9
333.16 K, 24621 kPa | 1415.1
333.16 K, 24657 kPa | 1415.2
333.16 K, 24688 kPa | 1415.3
333.16 K, 24720 kPa | 1415.5
333.16 K, 24751 kPa | 1415.7
333.16 K, 24782 kPa | 1415.8
333.16 K, 24810 kPa | 1415.9
333.16 K, 24838 kPa | 1416
333.16 K, 24869 kPa | 1416
333.16 K, 24910 kPa | 1416.4
333.16 K, 24944 kPa | 1416.5
333.16 K, 24980 kPa | 1416.7
333.16 K, 25007 kPa | 1416.8
333.16 K, 25039 kPa | 1417.1
333.16 K, 25088 kPa | 1417.1
333.16 K, 25111 kPa | 1417.2
333.17 K, 17403 kPa | 1376.8
333.17 K, 17429 kPa | 1376.9
333.17 K, 17457 kPa | 1377.4
333.17 K, 18467 kPa | 1383.1
333.17 K, 18490 kPa | 1383
333.17 K, 18517 kPa | 1383.4
333.17 K, 18552 kPa | 1383.6
333.17 K, 23382 kPa | 1409
